What was measured:
Test in all cases: relative viability (nuclei count vs DMSO), 5 days (fraction); higher = more cells survive
Idelalisib + Trametinib = compound: CC[C@H](Nc1ncnc2[nH]cnc12)c1nc2cccc(F)c2c(=O)n1-c1ccccc1 [Idelalisib] + CC(=O)Nc1cccc(-n2c(=O)n(C3CC3)c(=O)c3c(Nc4ccc(I)cc4F)n(C)c(=O)c(C)c32)c1 [Trametinib] (partner 0.02 µM)
In short: (§1)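 Lung cancer cell lines in 1536-well plates were dosed by pin tool the day after seeding, either with one drug alone or with a fixed anchor-drug dose plus five library-drug doses (not always all listed) in √10 steps. After 5 days, cells were fixed and their nuclei stained in one step (final 0.05% Triton X-100, 1% formaldehyde, 1 ug/ml Hoechst), then counted on 4× images. Relative viability is the nuclei count in treated wells divided by that in vehicle wells. Values are medians of duplicate plates.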

Idelalisib + Alpelisib = compound: CC[C@H](Nc1ncnc2[nH]cnc12)c1nc2cccc(F)c2c(=O)n1-c1ccccc1 [Idelalisib] + Cc1nc(NC(=O)N2CCC[C@H]2C(N)=O)sc1-c1ccnc(C(C)(C)C(F)(F)F)c1 [Alpelisib] (partner 2 µM)
In short: as §1

Pemetrexed + Vorinostat = compound: Nc1nc2[nH]cc(CCc3ccc(C(=O)N[C@@H](CCC(=O)O)C(=O)O)cc3)c2c(=O)[nH]1 [Pemetrexed] + O=C(CCCCCCC(=O)Nc1ccccc1)NO [Vorinostat] (partner 1 µM)
In short: as §1

Idelalisib + Tozasertib = compound: CC[C@H](Nc1ncnc2[nH]cnc12)c1nc2cccc(F)c2c(=O)n1-c1ccccc1 [Idelalisib] + Cc1cc(Nc2cc(N3CCN(C)CC3)nc(Sc3ccc(NC(=O)C4CC4)cc3)n2)n[nH]1 [Tozasertib] (partner 0.1 µM)
In short: as §1

NCI-H358 was tested, and the relative viability (Idelalisib + Trametinib; first compound 0.04 µM) was 0.191, the relative viability (Idelalisib + Trametinib; first compound 0.1265 µM) was 0.146 and the relative viability (Idelalisib + Trametinib; first compound 0.4 µM) was 0.149. For the same cell line, the relative viability (Idelalisib + Trametinib; first compound 1.265 µM) was 0.129, the relative viability (Idelalisib + Trametinib; first compound 4 µM) was 0.148 and the relative viability (Idelalisib + Alpelisib; first compound 0.04 µM) was 1.03. For the same cell line, the relative viability (Idelalisib + Alpelisib; first compound 0.1265 µM) was 0.894, the relative viability (Idelalisib + Alpelisib; first compound 0.4 µM) was 0.857 and the relative viability (Idelalisib + Alpelisib; first compound 1.265 µM) was 0.94. The relative viability (Idelalisib + Alpelisib; first compound 4 µM) was 0.719, the relative viability (Pemetrexed + Vorinostat; first compound 0.002 µM) was 0.616 and the relative viability (Pemetrexed + Vorinostat; first compound 0.006325 µM) was 0.655. For the same cell line, the relative viability (Pemetrexed + Vorinostat; first compound 0.02 µM) was 0.414, the relative viability (Pemetrexed + Vorinostat; first compound 0.06325 µM) was 0.167 and the relative viability (Pemetrexed + Vorinostat; first compound 0.2 µM) was 0.122. For the same cell line, the relative viability (Idelalisib + Tozasertib; first compound 0.04 µM) was 0.106, the relative viability (Idelalisib + Tozasertib; first compound 0.1265 µM) was 0.0937 and the relative viability (Idelalisib + Tozasertib; first compound 0.4 µM) was 0.113. For the same cell line, the relative viability (Idelalisib + Tozasertib; first compound 1.265 µM) was 0.088 and the relative viability (Idelalisib + Tozasertib; first compound 4 µM) was 0.116.

Cell Line NCI-H1915 has a relative viability (Idelalisib + Trametinib; first compound 0.04 µM) of 0.281, a relative viability (Idelalisib + Trametinib; first compound 0.1265 µM) of 0.291 and a relative viability (Idelalisib + Trametinib; first compound 0.4 µM) of 0.291. It also gave a relative viability (Idelalisib + Trametinib; first compound 1.265 µM) of 0.317, a relative viability (Idelalisib + Trametinib; first compound 4 µM) of 0.265 and a relative viability (Idelalisib + Alpelisib; first compound 0.04 µM) of 1.14. The relative viability (Idelalisib + Alpelisib; first compound 0.1265 µM) was 1.11, the relative viability (Idelalisib + Alpelisib; first compound 0.4 µM) was 1.03 and the relative viability (Idelalisib + Alpelisib; first compound 1.265 µM) was 1.11. It also gave a relative viability (Idelalisib + Alpelisib; first compound 4 µM) of 1.04, a relative viability (Pemetrexed + Vorinostat; first compound 0.002 µM) of 0.419 and a relative viability (Pemetrexed + Vorinostat; first compound 0.006325 µM) of 0.484. The relative viability (Pemetrexed + Vorinostat; first compound 0.02 µM) was 0.526, the relative viability (Pemetrexed + Vorinostat; first compound 0.06325 µM) was 0.463 and the relative viability (Pemetrexed + Vorinostat; first compound 0.2 µM) was 0.549. For the same cell line, the relative viability (Idelalisib + Tozasertib; first compound 0.04 µM) was 0.55, the relative viability (Idelalisib + Tozasertib; first compound 0.1265 µM) was 0.406 and the relative viability (Idelalisib + Tozasertib; first compound 0.4 µM) was 0.374. For the same cell line, the relative viability (Idelalisib + Tozasertib; first compound 1.265 µM) was 0.407 and the relative viability (Idelalisib + Tozasertib; first compound 4 µM) was 0.402.

For 201T, the relative viability (Idelalisib + Trametinib; first compound 0.04 µM) was 0.701, the relative viability (Idelalisib + Trametinib; first compound 0.1265 µM) was 0.697 and the relative viability (Idelalisib + Trametinib; first compound 0.4 µM) was 0.688. It also gave a relative viability (Idelalisib + Trametinib; first compound 1.265 µM) of 0.759, a relative viability (Idelalisib + Trametinib; first compound 4 µM) of 0.734 and a relative viability (Idelalisib + Alpelisib; first compound 0.04 µM) of 0.974. For the same cell line, the relative viability (Idelalisib + Alpelisib; first compound 0.1265 µM) was 0.987, the relative viability (Idelalisib + Alpelisib; first compound 0.4 µM) was 0.937 and the relative viability (Idelalisib + Alpelisib; first compound 1.265 µM) was 0.963. For the same cell line, the relative viability (Idelalisib + Alpelisib; first compound 4 µM) was 0.872, the relative viability (Pemetrexed + Vorinostat; first compound 0.002 µM) was 0.867 and the relative viability (Pemetrexed + Vorinostat; first compound 0.006325 µM) was 0.971. For the same cell line, the relative viability (Pemetrexed + Vorinostat; first compound 0.02 µM) was 1.03, the relative viability (Pemetrexed + Vorinostat; first compound 0.06325 µM) was 1.03 and the relative viability (Pemetrexed + Vorinostat; first compound 0.2 µM) was 0.848. It also gave a relative viability (Idelalisib + Tozasertib; first compound 0.04 µM) of 1.07, a relative viability (Idelalisib + Tozasertib; first compound 0.1265 µM) of 1.01 and a relative viability (Idelalisib + Tozasertib; first compound 0.4 µM) of 0.785. For the same cell line, the relative viability (Idelalisib + Tozasertib; first compound 1.265 µM) was 0.947 and the relative viability (Idelalisib + Tozasertib; first compound 4 µM) was 0.667.

With NCI-H1437 the relative viability (Idelalisib + Trametinib; first compound 0.04 µM) was 0.561, the relative viability (Idelalisib + Trametinib; first compound 0.1265 µM) was 0.547 and the relative viability (Idelalisib + Trametinib; first compound 0.4 µM) was 0.461. For the same cell line, the relative viability (Idelalisib + Trametinib; first compound 1.265 µM) was 0.545, the relative viability (Idelalisib + Trametinib; first compound 4 µM) was 0.354 and the relative viability (Idelalisib + Alpelisib; first compound 0.04 µM) was 0.947. For the same cell line, the relative viability (Idelalisib + Alpelisib; first compound 0.1265 µM) was 1.07, the relative viability (Idelalisib + Alpelisib; first compound 0.4 µM) was 0.892 and the relative viability (Idelalisib + Alpelisib; first compound 1.265 µM) was 0.84. It also gave a relative viability (Idelalisib + Alpelisib; first compound 4 µM) of 0.748, a relative viability (Pemetrexed + Vorinostat; first compound 0.002 µM) of 0.853 and a relative viability (Pemetrexed + Vorinostat; first compound 0.006325 µM) of 0.813. For the same cell line, the relative viability (Pemetrexed + Vorinostat; first compound 0.02 µM) was 0.806, the relative viability (Pemetrexed + Vorinostat; first compound 0.06325 µM) was 0.596 and the relative viability (Pemetrexed + Vorinostat; first compound 0.2 µM) was 0.364. The relative viability (Idelalisib + Tozasertib; first compound 0.04 µM) was 0.333, the relative viability (Idelalisib + Tozasertib; first compound 0.1265 µM) was 0.43 and the relative viability (Idelalisib + Tozasertib; first compound 0.4 µM) was 0.411. For the same cell line, the relative viability (Idelalisib + Tozasertib; first compound 1.265 µM) was 0.384 and the relative viability (Idelalisib + Tozasertib; first compound 4 µM) was 0.397.

A-427 showed a relative viability (Idelalisib + Trametinib; first compound 0.04 µM) of 0.843, a relative viability (Idelalisib + Trametinib; first compound 0.1265 µM) of 0.812 and a relative viability (Idelalisib + Trametinib; first compound 0.4 µM) of 0.667. It also gave a relative viability (Idelalisib + Trametinib; first compound 1.265 µM) of 0.78, a relative viability (Idelalisib + Trametinib; first compound 4 µM) of 0.7 and a relative viability (Idelalisib + Alpelisib; first compound 0.04 µM) of 1.11. For the same cell line, the relative viability (Idelalisib + Alpelisib; first compound 0.1265 µM) was 1.05, the relative viability (Idelalisib + Alpelisib; first compound 0.4 µM) was 0.945 and the relative viability (Idelalisib + Alpelisib; first compound 1.265 µM) was 1.15. It also gave a relative viability (Idelalisib + Alpelisib; first compound 4 µM) of 1.06, a relative viability (Pemetrexed + Vorinostat; first compound 0.002 µM) of 0.855 and a relative viability (Pemetrexed + Vorinostat; first compound 0.006325 µM) of 0.865. For the same cell line, the relative viability (Pemetrexed + Vorinostat; first compound 0.02 µM) was 0.867, the relative viability (Pemetrexed + Vorinostat; first compound 0.06325 µM) was 0.876 and the relative viability (Pemetrexed + Vorinostat; first compound 0.2 µM) was 0.708. The relative viability (Idelalisib + Tozasertib; first compound 0.04 µM) was 0.222, the relative viability (Idelalisib + Tozasertib; first compound 0.1265 µM) was 0.222 and the relative viability (Idelalisib + Tozasertib; first compound 0.4 µM) was 0.219. For the same cell line, the relative viability (Idelalisib + Tozasertib; first compound 1.265 µM) was 0.196 and the relative viability (Idelalisib + Tozasertib; first compound 4 µM) was 0.181.

With HCC-366 the relative viability (Idelalisib + Trametinib; first compound 0.04 µM) was 0.362, the relative viability (Idelalisib + Trametinib; first compound 0.1265 µM) was 0.464 and the relative viability (Idelalisib + Trametinib; first compound 0.4 µM) was 0.274. The relative viability (Idelalisib + Trametinib; first compound 1.265 µM) was 0.354, the relative viability (Idelalisib + Trametinib; first compound 4 µM) was 0.233 and the relative viability (Idelalisib + Alpelisib; first compound 0.04 µM) was 0.429. For the same cell line, the relative viability (Idelalisib + Alpelisib; first compound 0.1265 µM) was 0.4, the relative viability (Idelalisib + Alpelisib; first compound 0.4 µM) was 0.28 and the relative viability (Idelalisib + Alpelisib; first compound 1.265 µM) was 0.245. For the same cell line, the relative viability (Idelalisib + Alpelisib; first compound 4 µM) was 0.183, the relative viability (Pemetrexed + Vorinostat; first compound 0.002 µM) was 0.208 and the relative viability (Pemetrexed + Vorinostat; first compound 0.006325 µM) was 0.341. It also gave a relative viability (Pemetrexed + Vorinostat; first compound 0.02 µM) of 0.393, a relative viability (Pemetrexed + Vorinostat; first compound 0.06325 µM) of 0.386 and a relative viability (Pemetrexed + Vorinostat; first compound 0.2 µM) of 0.269. It also gave a relative viability (Idelalisib + Tozasertib; first compound 0.04 µM) of 0.121, a relative viability (Idelalisib + Tozasertib; first compound 0.1265 µM) of 0.126 and a relative viability (Idelalisib + Tozasertib; first compound 0.4 µM) of 0.107. For the same cell line, the relative viability (Idelalisib + Tozasertib; first compound 1.265 µM) was 0.112 and the relative viability (Idelalisib + Tozasertib; first compound 4 µM) was 0.068.

Source: the supplement of paper PMC10307832
